In ChEMBL document CHEMBL1158818, “Alkaloids from the sponge Monanchora unguifera” (J Nat Prod, 2005):

How the values were obtained:
Assay type in all cases: functional, cell-based
HT-29 = test: Cytotoxicity against human HT-29 cells
P388 = test: Cytotoxicity against mouse P388 cells
A549 = test: Cytotoxicity against human A549 cells
SK-MEL-28 = test: Cytotoxicity against human SK-MEL-28 cells
DU-145 = test: Cytotoxicity against human DU145 cells

Measured: IC50

CCCCCCC[C@@H]1C[C@@H]2CCC3=C(C(=O)OCCCCCCC[C@@H]4C[C@@H]5CCC6=C(C(=O)OCCCCNC(=N)N)C(C)N=C(N4)N65)C(C)N=C(N1)N32 (stereo not given in full) [BATZELLADINE J]
> 1 µg/mL: all assays above
